Data: ChEMBL document CHEMBL1128830, “Synthesis and antibacterial activity of FR21818, a new, potent 1-methylcarbapenem” (1995)
In brackets after ≈: the same amount, converted by molar mass.

Assays:
[1] = molecular target: T1, Dipeptidase 1 (Homo sapiens) (UniProt P16444); test: In vitro renal dehydropeptidase I (DHP-I) stability relative to meropenem
T1 sequence (whole entry): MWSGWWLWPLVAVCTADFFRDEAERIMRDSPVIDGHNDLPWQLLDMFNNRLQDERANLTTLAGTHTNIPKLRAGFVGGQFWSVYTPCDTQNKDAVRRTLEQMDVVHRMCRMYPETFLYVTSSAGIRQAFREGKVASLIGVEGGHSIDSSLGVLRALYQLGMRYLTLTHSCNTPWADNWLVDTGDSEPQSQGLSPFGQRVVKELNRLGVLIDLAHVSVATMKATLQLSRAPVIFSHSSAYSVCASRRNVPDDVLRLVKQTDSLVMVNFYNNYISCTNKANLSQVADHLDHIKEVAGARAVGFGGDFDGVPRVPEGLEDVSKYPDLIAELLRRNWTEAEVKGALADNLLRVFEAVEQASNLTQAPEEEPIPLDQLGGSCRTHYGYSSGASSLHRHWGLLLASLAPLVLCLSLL

Staphylococcus aureus [2] = test: Minimum inhibitory concentration required for antibacterial activity against Staphylococcus aureus 209P JC-1; format: functional
Proteus vulgaris = test: Minimum inhibitory concentration required for antibacterial activity against Proteus vulgaris IAM 1025; format: functional
Escherichia coli = test: Minimum inhibitory concentration required for antibacterial activity against Escherichia coli NIHJ JC-2; format: functional
Pseudomonas aeruginosa = test: Minimum inhibitory concentration required for antibacterial activity against Pseudomonas aeruginosa 26; format: functional
Staphylococcus aureus [3] = test: Minimum inhibitory concentration required for antibacterial activity against methicillin-resistant Staphylococcus aureus 3004; format: functional
Mus musculus = test: […] percent urinary recovery in mice after subcutaneous administration at a dose of 20 mg/Kg; format: functional, organism-based; details: Urine

Row | Compound | Stability [1] [%] | MIC (Staphylococcus aureus [2]) [µg/mL] | MIC (Proteus vulgaris) [µg/mL] | MIC (Escherichia coli) [µg/mL] | MIC (Pseudomonas aeruginosa) [µg/mL] | MIC (Staphylococcus aureus [3]) [µg/mL] | Recovery (Mus musculus) [%]
1 | C[C@@H](O)[C@H]1C(=O)N2C(C(=O)O)=C(S[C@@H]3CN[C@H](Cc4cc[n+](CCO)n4C)C3)[C@H](C)[C@H]12.[Cl-] | 26 | 0.05 | 1.56 | 0.2 | 0.2 | 6.25 | 68.9
2 | C[C@@H](O)[C@H]1C(=O)N2C(C(=O)[O-])=C(SC3Cn4cnc[n+]4C3)[C@H](C)[C@H]12 (stereo partly specified) [BIAPENEM] | 15.4 | 0.1 (≈ 0.285 µM) | 3.13 (≈ 8.93 µM) | 0.39 (≈ 1.11 µM) | 0.2 (≈ 0.571 µM) | 25 (≈ 71.3 µM) | 70.7
3 | C[C@@H](O)[C@H]1C(=O)N2C(C(=O)O)=C(S[C@@H]3CN[C@H](C(=O)N(C)C)C3)[C@H](C)[C@H]12 [MEROPENEM] | 100 | 0.1 (≈ 0.261 µM) | 0.1 (≈ 0.261 µM) | < 0.025 | 0.2 (≈ 0.522 µM) | 25 (≈ 65.2 µM) | 25
